Read-outs that look alike come from different tables or passages of the source. Square brackets hold non-standard residues; d marks the D form. Peptide text beside a SMILES is read from it. * marks the point of attachment. βDGlcA(1-OC18H37) = CCCCCCCCCCCCCCCCCCO[C@@H]1O[C@H](C(=O)*)[C@@H](O)[C@H](O)[C@H]1O; Bip = N[C@@H](Cc1ccc(-c2ccccc2)cc1)C(=O)O; αMeF = C[C@](N)(Cc1ccccc1)C(=O)O; Aib = CC(C)(N)C(=O)O

As a reminder, the EC50 is the concentration needed to bring the measured effect to its halfway point.

One test concerns the target T1, human glucagon receptor (Homo sapiens, UniProt P47871).
T1 construct: host or cells: CHO cells
In words: DiscoveRx LeadHunter cellular assay, cAMP stimulation, glucagon receptor in CHO cells. In kind it is cell-based.

A further test concerns the target T2, human GLP-1 receptor (Homo sapiens, UniProt P43220).
T2 construct: host or cells: CHO cells
In words: DiscoveRx LeadHunter cellular assay, cAMP stimulation, GLP-1 receptor in CHO cells. The following applies: human GLP-1 receptor in CHO cells (DiscoveRx); read-out: EC50 cAMP GLP-1 R. In kind it is cell-based.

T2 sequence (P43220 24-463): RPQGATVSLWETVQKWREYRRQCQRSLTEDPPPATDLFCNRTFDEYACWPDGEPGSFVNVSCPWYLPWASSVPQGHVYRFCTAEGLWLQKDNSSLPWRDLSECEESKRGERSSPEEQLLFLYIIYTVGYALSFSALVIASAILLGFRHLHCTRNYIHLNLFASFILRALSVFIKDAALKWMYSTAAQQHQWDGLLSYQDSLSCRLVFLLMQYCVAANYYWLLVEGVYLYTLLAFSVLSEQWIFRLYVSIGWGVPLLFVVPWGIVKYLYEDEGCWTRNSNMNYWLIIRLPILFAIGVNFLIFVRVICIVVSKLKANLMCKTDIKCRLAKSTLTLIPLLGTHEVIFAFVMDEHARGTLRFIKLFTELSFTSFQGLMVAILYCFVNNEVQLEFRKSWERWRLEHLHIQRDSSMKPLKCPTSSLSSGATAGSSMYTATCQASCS
T1 sequence (P47871 26-477): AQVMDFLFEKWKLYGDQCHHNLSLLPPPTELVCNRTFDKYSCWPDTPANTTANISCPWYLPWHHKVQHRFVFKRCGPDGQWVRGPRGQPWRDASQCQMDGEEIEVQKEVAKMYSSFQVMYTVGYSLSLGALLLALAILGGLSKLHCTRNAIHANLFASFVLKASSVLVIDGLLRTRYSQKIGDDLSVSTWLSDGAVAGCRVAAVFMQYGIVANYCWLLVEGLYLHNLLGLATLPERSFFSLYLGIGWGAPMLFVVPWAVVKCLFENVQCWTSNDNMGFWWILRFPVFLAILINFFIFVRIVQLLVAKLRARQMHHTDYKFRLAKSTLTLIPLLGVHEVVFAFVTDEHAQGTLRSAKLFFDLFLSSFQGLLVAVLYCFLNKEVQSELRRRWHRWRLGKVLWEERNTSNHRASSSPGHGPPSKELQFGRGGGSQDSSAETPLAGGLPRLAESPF
Experimental for human GLP-1 receptor: (§1) A further series of cellular assays was carried out with standard cellular assays (DiscoveRx, LeadHunter assays) using readout of cAMP stimulation or arrestin activation. Compounds were weighed precisely in an amount of about 1 mg and shipped to DiscoveRx for dilution and assay.
Experimental for human glucagon receptor: as §1

Turning to `CCCCCCCCCCCCCCCCCCO[C@@H]1O[C@H](C(=O)NCCCC[C@H](NC(=O)[C@H](Cc2ccc(-c3ccccc3)cc2)NC(=O)[C@H](CC(=O)O)NC(=O)[C@H](CO)NC(=O)[C@@H](NC(=O)[C@](C)(Cc2ccccc2)NC(=O)[C@@H](NC(=O)CNC(=O)[C@H](CCC(N)=O)NC(=O)C(C)(C)NC(=O)[C@@H](N)Cc2c[nH]cn2)[C@@H](C)O)[C@@H](C)O)C(N)=O)[C@@H](O)[C@H](O)[C@H]1O` [EU-A757] (H-H[Aib]QGT[αMeF]TSD[Bip]K(βDGlcA(1-OC18H37))-NH2; N-terminus assumed), the EC50 at human glucagon receptor (read-out: EC50 cAMP Glucagon R, human glucagon receptor in CHO cells (DiscoveRx)) was over 1000 nM.
In the case of `CCCCCCCCCCCCCCCCCCO[C@@H]1O[C@H](C(=O)NCCCC[C@H](NC(=O)[C@@H](NC(=O)[C@H](Cc2ccccc2)NC(=O)[C@H](CCC(=O)O)NC(=O)[C@@H]2CCCCNC(=O)CC[C@H](NC(=O)[C@H](CC(=O)O)NC(=O)[C@H](CC(C)C)NC(=O)[C@H](Cc3ccc(O)cc3)NC(=O)[C@H](CCCCN)NC(=O)[C@H](CO)NC(=O)[C@H](Cc3ccc(O)cc3)NC(=O)[C@H](CC(=O)O)NC(=O)[C@H](CO)NC(=O)[C@@H](NC(=O)[C@H](Cc3ccccc3)NC(=O)[C@@H](NC(=O)CNC(=O)[C@H](CCC(N)=O)NC(=O)C(C)(C)NC(=O)[C@@H](N)Cc3c[nH]cn3)[C@@H](C)O)[C@@H](C)O)C(=O)N[C@@H](CCC(N)=O)C(=O)N[C@@H](C)C(=O)N[C@@H](C)C(=O)N2)[C@@H](C)CC)C(=O)N[C@@H](Cc2c[nH]c3ccccc23)C(=O)N[C@@H](CC(C)C)C(=O)N[C@@H](CC(C)C)C(=O)N[C@@H](CCC(N)=O)C(=O)N[C@H](C(N)=O)[C@@H](C)O)[C@@H](O)[C@H](O)[C@H]1O` [EU-A996], at human GLP-1 receptor, the EC50 turned out to be 0.05 nM.
Same read-out and setting: the result for `CCCCCCCCCCCCO[C@@H]1O[C@H](C(=O)O)[C@@H](O[C@H]2O[C@H](C(=O)NCCCC[C@H](NC(=O)[C@@H](NC(=O)[C@H](Cc3ccccc3)NC(=O)[C@H](CCC(=O)O)NC(=O)[C@@H]3CCCCNC(=O)CC[C@H](NC(=O)[C@H](CC(=O)O)NC(=O)[C@H](CC(C)C)NC(=O)[C@H](Cc4ccc(O)cc4)NC(=O)[C@H](CCCCN)NC(=O)[C@H](CO)NC(=O)[C@H](Cc4ccc(O)cc4)NC(=O)[C@H](CC(=O)O)NC(=O)[C@H](CO)NC(=O)[C@@H](NC(=O)[C@H](Cc4ccccc4)NC(=O)[C@@H](NC(=O)CNC(=O)[C@H](CCC(N)=O)NC(=O)C(C)(C)NC(=O)[C@@H](N)Cc4c[nH]cn4)[C@@H](C)O)[C@@H](C)O)C(=O)N[C@@H](CCC(N)=O)C(=O)N[C@@H](C)C(=O)N[C@@H](C)C(=O)N3)[C@@H](C)CC)C(=O)N[C@@H](Cc3c[nH]c4ccccc34)C(=O)N[C@@H](CC(C)C)C(=O)N[C@@H](CC(C)C)C(=O)N[C@@H](CCC(N)=O)C(=O)N[C@H](C(N)=O)[C@@H](C)O)[C@@H](O)[C@H](O)[C@H]2O)[C@H](O)[C@H]1O` [EU-A999] reads 0.05 nM.
In the case of `CCCCCCCCCCCCCCCCO[C@@H]1O[C@H](CO[C@H]2O[C@H](C(=O)NCCCC[C@H](NC(=O)[C@@H](NC(=O)[C@H](Cc3ccccc3)NC(=O)[C@H](CCC(=O)O)NC(=O)[C@@H]3CCCCNC(=O)CC[C@H](NC(=O)[C@H](CC(=O)O)NC(=O)[C@H](CC(C)C)NC(=O)[C@H](Cc4ccc(O)cc4)NC(=O)[C@H](CCCCN)NC(=O)[C@H](CO)NC(=O)[C@H](Cc4ccc(O)cc4)NC(=O)[C@H](CC(=O)O)NC(=O)[C@H](CO)NC(=O)[C@@H](NC(=O)[C@H](Cc4ccccc4)NC(=O)[C@@H](NC(=O)CNC(=O)[C@H](CCC(N)=O)NC(=O)C(C)(C)NC(=O)[C@@H](N)Cc4c[nH]cn4)[C@@H](C)O)[C@@H](C)O)C(=O)N[C@@H](CCC(N)=O)C(=O)N[C@@H](C)C(=O)N[C@@H](C)C(=O)N3)[C@@H](C)CC)C(=O)N[C@@H](Cc3c[nH]c4ccccc34)C(=O)N[C@@H](CC(C)C)C(=O)N[C@@H](CC(C)C)C(=O)N[C@@H](CCC(N)=O)C(=O)N[C@H](C(N)=O)[C@@H](C)O)[C@H](O)[C@H](O)[C@H]2O)[C@@H](O)[C@H](O)[C@H]1O` [EU-A1025], the EC50 was found to be 0.008 nM at human GLP-1 receptor and 0.24 nM on human glucagon receptor.
As to `CCCCCCCCCCCCCCCCO[C@H]1O[C@H](CO[C@H]2O[C@H](C(=O)NCCCC[C@H](NC(=O)[C@@H](NC(=O)[C@H](Cc3ccccc3)NC(=O)[C@H](CCC(=O)O)NC(=O)[C@@H]3CCCCNC(=O)CC[C@H](NC(=O)[C@H](CC(=O)O)NC(=O)[C@H](CC(C)C)NC(=O)[C@H](Cc4ccc(O)cc4)NC(=O)[C@H](CCCCN)NC(=O)[C@H](CO)NC(=O)[C@H](Cc4ccc(O)cc4)NC(=O)[C@H](CC(=O)O)NC(=O)[C@H](CO)NC(=O)[C@@H](NC(=O)[C@H](Cc4ccccc4)NC(=O)[C@@H](NC(=O)CNC(=O)[C@H](CCC(N)=O)NC(=O)C(C)(C)NC(=O)[C@@H](N)Cc4c[nH]cn4)[C@@H](C)O)[C@@H](C)O)C(=O)N[C@@H](CCC(N)=O)C(=O)N[C@@H](C)C(=O)N[C@@H](C)C(=O)N3)[C@@H](C)CC)C(=O)N[C@@H](Cc3c[nH]c4ccccc34)C(=O)N[C@@H](CC(C)C)C(=O)N[C@@H](CC(C)C)C(=O)N[C@@H](CCC(N)=O)C(=O)N[C@H](C(N)=O)[C@@H](C)O)[C@H](O)[C@H](O)[C@H]2O)[C@@H](O)[C@H](O)[C@H]1O` [EU-A1173], the EC50 on human GLP-1 receptor was determined as 0.021 nM; at human glucagon receptor, 0.463 nM.
`CCCCCCCCCCCCO[C@@H]1O[C@H](CO[C@H]2O[C@H](C(=O)NCCCC[C@H](NC(=O)[C@@H](NC(=O)[C@H](Cc3ccccc3)NC(=O)[C@H](CCC(=O)O)NC(=O)[C@@H]3CCCCNC(=O)CC[C@H](NC(=O)[C@H](CC(=O)O)NC(=O)[C@H](CC(C)C)NC(=O)[C@H](Cc4ccc(O)cc4)NC(=O)[C@H](CCCCN)NC(=O)[C@H](CO)NC(=O)[C@H](Cc4ccc(O)cc4)NC(=O)[C@H](CC(=O)O)NC(=O)[C@H](CO)NC(=O)[C@@H](NC(=O)[C@H](Cc4ccccc4)NC(=O)[C@@H](NC(=O)CNC(=O)[C@H](CCC(N)=O)NC(=O)C(C)(C)NC(=O)[C@@H](N)Cc4c[nH]cn4)[C@@H](C)O)[C@@H](C)O)C(=O)N[C@@H](CCC(N)=O)C(=O)N[C@@H](C)C(=O)N[C@@H](C)C(=O)N3)[C@@H](C)CC)C(=O)N[C@@H](Cc3c[nH]c4ccccc34)C(=O)N[C@@H](CC(C)C)C(=O)N[C@@H](CC(C)C)C(=O)N[C@@H](CCC(N)=O)C(=O)N[C@H](C(=O)O)[C@@H](C)O)[C@H](O)[C@H](O)[C@H]2O)[C@@H](O)[C@H](O)[C@H]1O` [EU-A1576]: the figures for the EC50 at human GLP-1 receptor and at human glucagon receptor were 0.032 nM and 0.07 nM, respectively.
In the case of `CCCCCCCCCCCCCCO[C@@H]1O[C@H](CO[C@H]2O[C@H](C(=O)NCCCC[C@H](NC(=O)[C@@H](NC(=O)[C@H](Cc3ccccc3)NC(=O)[C@H](CCC(=O)O)NC(=O)[C@@H]3CCCCNC(=O)CC[C@H](NC(=O)[C@H](CC(=O)O)NC(=O)[C@H](CC(C)C)NC(=O)[C@H](Cc4ccc(O)cc4)NC(=O)[C@H](CCCCN)NC(=O)[C@H](CO)NC(=O)[C@H](Cc4ccc(O)cc4)NC(=O)[C@H](CC(=O)O)NC(=O)[C@H](CO)NC(=O)[C@@H](NC(=O)[C@H](Cc4ccccc4)NC(=O)[C@@H](NC(=O)CNC(=O)[C@H](CCC(N)=O)NC(=O)C(C)(C)NC(=O)[C@@H](N)Cc4c[nH]cn4)[C@@H](C)O)[C@@H](C)O)C(=O)N[C@@H](CCC(N)=O)C(=O)N[C@@H](C)C(=O)N[C@@H](C)C(=O)N3)[C@@H](C)CC)C(=O)N[C@@H](Cc3c[nH]c4ccccc34)C(=O)N[C@@H](CC(C)C)C(=O)N[C@@H](CC(C)C)C(=O)N[C@@H](CCC(N)=O)C(=O)N[C@H](C(=O)O)[C@@H](C)O)[C@H](O)[C@H](O)[C@H]2O)[C@@H](O)[C@H](O)[C@H]1O` [EU-A1577], the EC50 at human GLP-1 receptor turned out to be 0.007 nM; at human glucagon receptor it was 0.069 nM.
